Earlier results, collected in patent EP4527389A1 (Laboratorios Farmacéuticos Rovi S.A., priority 2022, dated 2023).

Tests used:
[1] = molecular target: CYP2D6 (cytochrome P450 2D6) enzyme (Homo sapiens, UniProt P10635); conditions: three categories: strong, moderate, weak
[2] = daily paroxetine 20 mg in patients stabilized on risperidone (4 to 8 mg/day)

CYP2D6 (cytochrome P450 2D6) enzyme, sequence (P10635 whole entry): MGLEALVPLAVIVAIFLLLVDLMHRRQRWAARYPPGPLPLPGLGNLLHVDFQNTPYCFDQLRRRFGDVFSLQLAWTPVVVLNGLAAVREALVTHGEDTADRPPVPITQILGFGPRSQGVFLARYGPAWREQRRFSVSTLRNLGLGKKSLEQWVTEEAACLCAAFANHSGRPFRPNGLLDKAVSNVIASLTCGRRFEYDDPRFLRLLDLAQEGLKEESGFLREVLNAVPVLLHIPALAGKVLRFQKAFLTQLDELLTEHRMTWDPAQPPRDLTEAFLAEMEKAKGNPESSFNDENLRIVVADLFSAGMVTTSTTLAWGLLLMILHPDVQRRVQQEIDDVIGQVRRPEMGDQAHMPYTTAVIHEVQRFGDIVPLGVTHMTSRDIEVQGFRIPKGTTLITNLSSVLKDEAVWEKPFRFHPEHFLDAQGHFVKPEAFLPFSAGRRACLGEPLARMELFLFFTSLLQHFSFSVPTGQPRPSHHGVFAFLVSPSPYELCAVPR

| Structure (SMILES) | CYP2D6 enzyme inhibitor category [1] | also measured |
| --- | --- | --- |
| C[C@]12CC[C@H](O)CC1=CC[C@@H]1[C@@H]2CC[C@]2(C)C(c3cccnc3)=CC[C@@H]12 [abiraterone] | moderate inhibitor |  |
| CN(C/C=C/C#CC(C)(C)C)Cc1cccc2ccccc12 [terbinafine] | strong inhibitor |  |
| CN(C)CCC[C@@]1(c2ccc(F)cc2)OCc2cc(C#N)ccc21 [escitalopram] | weak inhibitor |  |
| C[C@@H](NCCCc1cccc(C(F)(F)F)c1)c1cccc2ccccc12 [cinacalcet] | moderate inhibitor |  |
| Cc1ccc(-c2cc(C(F)(F)F)nn2-c2ccc(S(N)(=O)=O)cc2)cc1 [celecoxib] | weak inhibitor |  |
| Fc1ccc([C@@H]2CCNC[C@H]2COc2ccc3c(c2)OCO3)cc1 [paroxetine] | strong inhibitor | decrease of 9-hydroxyrisperidone concentrations [2]: approximately 10%; increase of concentrations of the active moiety (the sum of risperidone plus 9-hydroxyrisperidone) [2]: approximately 1.4 fold; increase of mean plasma concentrations of risperidone [2]: approximately 4 fold |
| CC(C)c1nc(CN(C)C(=O)N[C@@H](CCN2CCOCC2)C(=O)N[C@H](CC[C@H](Cc2ccccc2)NC(=O)OCc2cncs2)Cc2ccccc2)cs1 [cobicistat] | weak inhibitor |  |
| C=C[C@H]1C[N@@]2CC[C@H]1C[C@@H]2[C@@H](O)c1ccnc2ccc(OC)cc12 [quinidine] | strong inhibitor |  |
| CN[C@H]1CC[C@@H](c2ccc(Cl)c(Cl)c2)c2ccccc21 [sertraline] | weak inhibitor |  |
| CN1C(=O)CC(=O)N(c2ccccc2)c2cc(Cl)ccc21 [clobazam] | weak inhibitor |  |
| C[C@H]1CNCCc2ccc(Cl)cc21 [lorcaserin] | moderate inhibitor |  |
| Nc1nc(CC(=O)Nc2ccc(CCNC[C@H](O)c3ccccc3)cc2)cs1 [mirabegron] | moderate inhibitor |  |
| CN/C(=N/CCSCc1nc[nH]c1C)NC#N [cimetidine] | weak inhibitor |  |
| CCCS(=O)(=O)Nc1ccc(F)c(C(=O)c2c[nH]c3ncc(-c4ccc(Cl)cc4)cc23)c1F [vemurafenib] | weak inhibitor |  |
| CC(CCc1ccccc1)NCC(O)c1ccc(O)c(C(N)=O)c1 (stereo not drawn) [labetalol] | weak inhibitor |  |
